In PMC10603954, “Bacterial Tyrosinase Inhibition, Hemolytic and Thrombolytic Screening, and In Silico Modeling of Rationally Designed Tosyl Piperazine-Engrafted Dithiocarbamate Derivatives” (Biomedicines, 2023):
Where two headings read alike, the source gives them in different places.

What was measured:
[1] = test system: clot; assay: Thrombolytic activity (clot lysis); design: species or system albino mice; details: 100 µL sample in DMSO, 37 °C, 3 h
Text: Blood samples were collected from albino mice and relocated to numerous cleaned and weighed-up eppendorf tubes. […] Blood serum was cast-off from these tubes and weighed in the eppendorf tubes to calculate the preliminary weight of the clot (clot weight = weight of the eppendorf with the clot minus the weight of the empty eppendorf). […] In this methodology, ABTS was used as a positive control, while water was used as a negative control. Serum was again removed and weighed in the eppendorf tubes to measure clot lysis.

[2] = molecular target: bacterial tyrosinase (Bacillus subtilis NA2); design: method as in PMID 36142889; details: reference standard; read-out: IC50 (µM) Tyrosinase Inhibition; cited from earlier work
[3] = molecular target: Tyrosinase; details: Figure 3; no reference given; read-out: Tyrosinase inhibtors IC50; cited from earlier work
[4] = molecular target: bacterial tyrosinase (Bacillus subtilis NA2); assay: Tyrosinase inhibition, spectrophotometric L-Dopa assay; type: biochemical; details: for IC50: bacterial tyrosinase, L-Dopa substrate, PBS pH 6.8; for optical density at varied incubation times: incubation 10, 20 and 30 min (Figure 6)
Experimental: IC50 values were obtained using a spectrophotometer assay. The protocol involved the addition of 2 mL of 1/2 mM L-Dopa in a 67.0 mM PBS (phosphate buffer saline) solution of pH 6.8 to the 800 µL solution of target molecules in DMSO. A total of 0.1 mL of the enzyme solution (tyrosinase) was dissolved in this mixture, and the starting rate of linear increase was measured in the optical density after 10, 20, and 30 min of incubation time, respectively. Thus, optical density increases or decreases with the presence of dopachrome.
The inhibition potential of these derivatives was also studied at varied incubation times.

[5] = Hemolytic activity; type: cell-based, albino mice; details: albino, mouse, red blood cells (RBC pellet from blood), pH 7.4; 20 µL sample (10 mg/mL) with 180 µL RBC, 37 °C, half an hour
Experimental: A blood sample of 5 mL of volume from albino mice was taken and subjected to centrifugation at 1000 rpm for 5 min. RBC pellets were secluded and splashed 3–4 times using chilled buffer solutions that had pH values of 7.4, such as the phosphate buffer saline (PBS). A solution sample in a volume of 20 µL (10 mg/mL) was taken and added to a 180 µL RBC pellet. […] A sample tube was taken from the incubator and lowered to room temperature in an ice bath for 5 min. The sample was again centrifuged at 13,000 rpm for 5 min. A total of 100 µL of supernatant was collected from each tube and diluted with the ice-cold phosphate buffered saline.

Row | IC50 [4] | optical density at varied incubation times [4] | melting point | SMILES | % Thrombolysis [1] | IC50 [2] | IC50 [3] | hemolysis at 0.5 h, 1 mg/mL [5]
1 | 34.8 ± 0.99 µM | linear decrease in optical density |  | Cc1ccc(S(=O)(=O)N2CCN(C(=S)SCC(=O)Nc3ccccc3)CC2)cc1 [Compound 4a, 2-Oxo-2-(phenylamino)ethyl 4-tosylpiperazine-1-carbodithioate] | 62.3 ± 0.41% |  |  | 0.55 ± 0.03%
2 | 8.01 ± 0.11 µM | highest optical density | 180 °C | Cc1ccc(S(=O)(=O)N2CCN(C(=S)SCC(=O)Nc3ccccc3Cl)CC2)cc1 [Compound 4b, 2-((2-Chlorophenyl)amino)-2-oxoethyl 4-tosylpiperazine-1-carbodithioate] | 54.43 ± 0.23% |  |  | 0.29 ± 0.01%
3 | 8.1 ± 0.3 µM |  |  | Cc1ccc(S(=O)(=O)N2CCN(C(=S)SCC(=O)Nc3ccccc3F)CC2)cc1 [Compound 4c, 2-((2-Fluorophenyl)amino)-2-oxoethyl 4-tosylpiperazine-1-carbodithioate] | 56.76 ± 0.15% |  |  | 6.6 ± 0.37%
4 | 6.88 ± 0.11 µM |  | 175 °C | COc1ccc(NC(=O)CSC(=S)N2CCN(S(=O)(=O)c3ccc(C)cc3)CC2)cc1 [Compound 4d, 2-((4-Methoxyphenyl)amino)-2-oxoethyl 4-tosylpiperazine-1-carbodithioate] | 52.4 ± 0.2% |  |  | 15.6 ± 0.5%
5 | 11.1 ± 0.4 µM |  |  | Cc1ccc(S(=O)(=O)N2CCN(C(=S)SCC(=O)Nc3ccc(Cl)cc3)CC2)cc1 [Compound 4e, 2-((4-Chlorophenyl)amino)-2-oxoethyl 4-tosylpiperazine-1-carbodithioate] | 67.3 ± 0.2% |  |  | 7.5 ± 0.4%
6 | 10.3 ± 0.26 µM |  |  | Cc1ccc(S(=O)(=O)N2CCN(C(=S)SCC(=O)Nc3ccc(F)cc3)CC2)cc1 [Compound 4f, 2-((4-Fluorophenyl)amino)-2-oxoethyl 4-tosylpiperazine-1-carbodithioate] | 56.53 ± 0.55% |  |  | 4.53 ± 0.35%
7 | 7.24 ± 0.15 µM | linear decrease in optical density | 185 °C | Cc1ccc(S(=O)(=O)N2CCN(C(=S)SCC(=O)Nc3ccc(C)cc3C)CC2)cc1 [Compound 4g, 2-((2,4-Dimethylphenyl)amino)-2-oxoethyl 4-tosylpiperazine-1-carbodithioate] | 55.26 ± 0.15% |  |  | 1.53 ± 0.35%
8 | 13.25 ± 0.11 µM | linear decrease in optical density | 190 °C | COc1ccc(OC)c(NC(=O)CSC(=S)N2CCN(S(=O)(=O)c3ccc(C)cc3)CC2)c1 [Compound 4h, 2-((2,5-Dimethoxyphenyl)amino)-2-oxoethyl 4-tosylpiperazine-1-carbodithioate] | 60.83 ± 0.14% |  |  | 11.3 ± 0.22%
9 | 19.2 ± 0.47 µM | linear decrease in optical density |  | Cc1ccc(S(=O)(=O)N2CCN(C(=S)SCC(=O)Nc3ccc(Cl)c(Cl)c3)CC2)cc1 [Compound 4i, 2-((3,4-Dichlorophenyl)amino)-2-oxoethyl 4-tosylpiperazine-1-carbodithioate] | 54.38 ± 0.53% |  |  | 12.8 ± 0.35%
10 | 11.11 ± 0.1 µM | linear decrease in optical density |  | Cc1ccc(S(=O)(=O)N2CCN(C(=S)SCC(=O)Nc3ccc(C)c(C)c3)CC2)cc1 [Compound 4j, 2-((3,4-Dimethylphenyl)amino)-2-oxoethyl 4-tosylpiperazine-1-carbodithioate] | 56.6 ± 0.23% |  |  | 2.56 ± 0.3%

The next lines start with the molecule.

Row | SMILES | IC50 [4] | optical density at varied incubation times [4] | melting point | % Thrombolysis [1] | IC50 [2] | IC50 [3] | hemolysis at 0.5 h, 1 mg/mL [5]
11 | CCn1c(=NN=c2sc3cc(S(=O)(=O)O)ccc3n2CC)sc2cc(S(=O)(=O)O)ccc21 [ABTS, 2,2′-azino-bis(3-ethylbenzothiazoline-6-sulfonic acid), reference compound] |  |  |  | 80% |  |  | 
12 | O=C1O[C@H]([C@@H](O)CO)C(O)=C1O [Ascorbic Acid] |  |  |  |  | 11.5 ± 1 µM |  | 
13 | O=C(c1ccccc1)N1CCN(Cc2ccc(F)cc2)CC1 [Compound 2d] |  |  |  |  |  | 13.3 µM | 
14 | O=C(c1cccc(Cl)c1[N+](=O)[O-])N1CCN(Cc2ccc(F)cc2)CC1 [Compound 2e] |  |  |  |  |  | 0.18 µM | 
15 | O=S(=O)(c1ccc(CN2CCN(c3ccccc3)CC2)cc1)N1CCCCC1 [Compound 2f] |  |  |  |  |  | 0.06 µM | 
16 | Cc1ccc(NC(=O)CCCN2CCN(C/C=C/c3ccccc3)CC2)c(C)c1 [Compound 2g] |  |  |  |  |  | 0.01 µM | 
17 | COc1cccc(/C=C/C(=O)N2CCN(c3ccc(F)c(Cl)c3)CC2)c1Cl [Compound 2h] |  |  |  |  |  | 0.12 µM | 
18 | O=c1cc(CO)occ1O [Kojic Acid, Kojic acid, reference compound] | 30.3 ± 0.75 µM |  |  |  |  |  | 
